# Data taken from PubChem BioAssay (NCI).
#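 Dose response: 5 concentrations. Exposure: 48 h. Format: 96-well plates. Endpoint: linear interpolation; highest concentration if not reached. TGI denotes the concentration required for complete inhibition of growth.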
# How the values were obtained:
# Assay in all cases: NCI tumour cell line growth inhibition, 48 h
# SF-539 CNS = tested on: SF-539 CNS
# LXFL 529 NSCLC = tested on: LXFL 529 NSCLC
# MOLT-4 leukemia = tested on: MOLT-4 leukemia
# EKVX NSCLC = tested on: EKVX NSCLC
# HOP-62 NSCLC = tested on: HOP-62 NSCLC
# KM12 colon = tested on: KM12 colon
# UO-31 renal = tested on: UO-31 renal
# HL-60(TB) leukemia = tested on: HL-60(TB) leukemia
# UACC-62 melanoma = tested on: UACC-62 melanoma
# SF-295 CNS = tested on: SF-295 CNS
# HCT-116 colon = tested on: HCT-116 colon
# XF 498 CNS = tested on: XF 498 CNS
# HCC-2998 colon = tested on: HCC-2998 colon
# DMS 114 small cell lung = tested on: DMS 114 small cell lung
# MALME-3M melanoma = tested on: MALME-3M melanoma
# K-562 leukemia = tested on: K-562 leukemia
# SW-620 colon = tested on: SW-620 colon
# TK-10 renal = tested on: TK-10 renal
# OVCAR-3 ovarian = tested on: OVCAR-3 ovarian
# M14 melanoma = tested on: M14 melanoma
# A498 renal = tested on: A498 renal
# 786-0 renal = tested on: 786-0 renal
# SK-OV-3 ovarian = tested on: SK-OV-3 ovarian
# SK-MEL-2 melanoma = tested on: SK-MEL-2 melanoma
# SNB-75 CNS = tested on: SNB-75 CNS
# DLD-1 colon = tested on: DLD-1 colon
# OVCAR-8 ovarian = tested on: OVCAR-8 ovarian
# NCI-H226 lung = tested on: NCI-H226 lung
# SK-MEL-28 melanoma = tested on: SK-MEL-28 melanoma
# CAKI-1 renal = tested on: CAKI-1 renal
# SF-268 CNS = tested on: SF-268 CNS
# NCI-H23 lung = tested on: NCI-H23 lung
# HOP-92 NSCLC = tested on: HOP-92 NSCLC
# A549 NSCLC = tested on: A549 NSCLC
# NCI-H522 lung = tested on: NCI-H522 lung
# SNB-78 CNS = tested on: SNB-78 CNS
# HT29 colon = tested on: HT29 colon
# SNB-19 CNS = tested on: SNB-19 CNS
# UACC-257 melanoma = tested on: UACC-257 melanoma
# RPMI-8226 leukemia = tested on: RPMI-8226 leukemia
# OVCAR-4 ovarian = tested on: OVCAR-4 ovarian
# SK-MEL-5 melanoma = tested on: SK-MEL-5 melanoma
# IGROV1 ovarian = tested on: IGROV1 ovarian
# M19-MEL melanoma = tested on: M19-MEL melanoma
# SR leukemia = tested on: SR leukemia
# SN12C renal = tested on: SN12C renal
# DMS 273 small cell lung = tested on: DMS 273 small cell lung
# COLO 205 colon = tested on: COLO 205 colon
# NCI-H460 lung = tested on: NCI-H460 lung
# HOP-18 NSCLC = tested on: HOP-18 NSCLC
# KM20L2 colon = tested on: KM20L2 colon
# LOX IMVI melanoma = tested on: LOX IMVI melanoma
# CCRF-CEM leukemia = tested on: CCRF-CEM leukemia
# RXF 393 renal = tested on: RXF 393 renal
# HCT-15 colon = tested on: HCT-15 colon
# U251 CNS = tested on: U251 CNS
# OVCAR-5 ovarian = tested on: OVCAR-5 ovarian
# ACHN renal = tested on: ACHN renal
smiles,measurement,setting,value
O=C(c1ccncc1)n1nc(-c2ccccc2)c(N=Nc2ccc([N+](=O)[O-])cc2)c1-c1ccccc1,TGI,SF-539 CNS,> 100 µM
same,TGI,LXFL 529 NSCLC,25.7 µM
same,TGI,MOLT-4 leukemia,> 100 µM
same,TGI,EKVX NSCLC,45.8 µM
same,TGI,HOP-62 NSCLC,> 100 µM
same,TGI,KM12 colon,> 100 µM
same,TGI,UO-31 renal,86.2 µM
same,TGI,HL-60(TB) leukemia,> 100 µM
same,TGI,UACC-62 melanoma,> 100 µM
same,TGI,SF-295 CNS,> 100 µM
same,TGI,HCT-116 colon,> 100 µM
same,TGI,XF 498 CNS,> 100 µM
same,TGI,HCC-2998 colon,> 100 µM
same,TGI,DMS 114 small cell lung,> 100 µM
same,TGI,MALME-3M melanoma,> 100 µM
same,TGI,K-562 leukemia,> 100 µM
same,TGI,SW-620 colon,> 100 µM
same,TGI,TK-10 renal,> 100 µM
same,TGI,OVCAR-3 ovarian,> 100 µM
same,TGI,M14 melanoma,> 100 µM
same,TGI,A498 renal,> 100 µM
same,TGI,786-0 renal,> 100 µM
same,TGI,SK-OV-3 ovarian,> 100 µM
same,TGI,SK-MEL-2 melanoma,> 100 µM
same,TGI,SNB-75 CNS,> 100 µM
same,TGI,DLD-1 colon,> 100 µM
same,TGI,OVCAR-8 ovarian,> 100 µM
same,TGI,NCI-H226 lung,> 100 µM
same,TGI,SK-MEL-28 melanoma,> 100 µM
same,TGI,CAKI-1 renal,> 100 µM
same,TGI,SF-268 CNS,> 100 µM
same,TGI,NCI-H23 lung,> 100 µM
same,TGI,HOP-92 NSCLC,> 100 µM
same,TGI,A549 NSCLC,> 100 µM
same,TGI,NCI-H522 lung,> 100 µM
same,TGI,SNB-78 CNS,28 µM
same,TGI,HT29 colon,> 100 µM
same,TGI,SNB-19 CNS,> 100 µM
same,TGI,UACC-257 melanoma,> 100 µM
same,TGI,RPMI-8226 leukemia,> 100 µM
same,TGI,OVCAR-4 ovarian,28.2 µM
same,TGI,SK-MEL-5 melanoma,> 100 µM
same,TGI,IGROV1 ovarian,> 100 µM
same,TGI,M19-MEL melanoma,> 100 µM
same,TGI,SR leukemia,> 100 µM
same,TGI,SN12C renal,> 100 µM
same,TGI,DMS 273 small cell lung,> 100 µM
same,TGI,COLO 205 colon,> 100 µM
COC(=O)C1=C(O)C(O)=C(C(=O)OC)C1,TGI,NCI-H460 lung,> 100 µM
same,TGI,SF-539 CNS,> 100 µM
same,TGI,LXFL 529 NSCLC,> 100 µM
same,TGI,MOLT-4 leukemia,> 100 µM
same,TGI,EKVX NSCLC,> 100 µM
same,TGI,HOP-62 NSCLC,> 100 µM
same,TGI,KM12 colon,> 100 µM
same,TGI,UO-31 renal,> 100 µM
same,TGI,HL-60(TB) leukemia,> 100 µM
same,TGI,UACC-62 melanoma,> 100 µM
same,TGI,HOP-18 NSCLC,> 100 µM
same,TGI,SF-295 CNS,> 100 µM
same,TGI,HCT-116 colon,> 100 µM
same,TGI,HCC-2998 colon,> 100 µM
same,TGI,KM20L2 colon,> 100 µM
same,TGI,DMS 114 small cell lung,> 100 µM
same,TGI,MALME-3M melanoma,> 100 µM
same,TGI,LOX IMVI melanoma,> 100 µM
same,TGI,K-562 leukemia,> 100 µM
same,TGI,SW-620 colon,> 100 µM
same,TGI,TK-10 renal,> 100 µM
same,TGI,OVCAR-3 ovarian,> 100 µM
same,TGI,CCRF-CEM leukemia,> 100 µM
same,TGI,M14 melanoma,> 100 µM
same,TGI,A498 renal,> 100 µM
same,TGI,786-0 renal,> 100 µM
same,TGI,SK-OV-3 ovarian,> 100 µM
same,TGI,RXF 393 renal,> 100 µM
same,TGI,SK-MEL-2 melanoma,> 100 µM
same,TGI,HCT-15 colon,> 100 µM
same,TGI,SNB-75 CNS,> 100 µM
same,TGI,DLD-1 colon,> 100 µM
same,TGI,OVCAR-8 ovarian,> 100 µM
same,TGI,NCI-H226 lung,> 100 µM
same,TGI,SK-MEL-28 melanoma,> 100 µM
same,TGI,CAKI-1 renal,> 100 µM
same,TGI,SF-268 CNS,> 100 µM
same,TGI,NCI-H23 lung,> 100 µM
same,TGI,HOP-92 NSCLC,> 100 µM
same,TGI,A549 NSCLC,> 100 µM
same,TGI,NCI-H522 lung,> 100 µM
same,TGI,U251 CNS,> 100 µM
same,TGI,OVCAR-5 ovarian,> 100 µM
same,TGI,SNB-78 CNS,> 100 µM
same,TGI,HT29 colon,> 100 µM
same,TGI,SNB-19 CNS,> 100 µM
same,TGI,UACC-257 melanoma,> 100 µM
same,TGI,RPMI-8226 leukemia,> 100 µM
same,TGI,ACHN renal,> 100 µM
same,TGI,OVCAR-4 ovarian,> 100 µM
same,TGI,SK-MEL-5 melanoma,> 100 µM
same,TGI,IGROV1 ovarian,> 100 µM
same,TGI,M19-MEL melanoma,> 100 µM
same,TGI,SN12C renal,> 100 µM
same,TGI,DMS 273 small cell lung,> 100 µM
same,TGI,COLO 205 colon,> 100 µM
